Assay results published in patent publication US10196403B2, “Compounds and compositions and uses thereof” (Sunovion Pharmaceuticals Inc., priority 2016, dated 2019).
Where two headings read alike, the source gives them in different places.

System: mice
Test: Neuropharmacological Assay (SmartCube)
Assay type: in vivo
Conditions: for minimal effective dose: Mus musculus, read-out: POTENCY (minimal effective dose, MED); for AD: ADHD (SmartCube probability) / AG: analgesic (SmartCube probability) / AX: anxiolytic (SmartCube probability) / CE: cognitive enhancer (SmartCube probability) / DP: anti-depressant (SmartCube probability) / MS: mood stabilizer (SmartCube probability) / PS: anti-psychotic (SmartCube probability) / SD: sedative hypnotic (SmartCube probability) / UN: uncharacterized CNS activity (SmartCube probability): mice, i.p. 15 min before test, most efficacious dose(s) of 3 doses
Summary of the method: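 Compounds in NMP/PEG/propylene glycol given i.p. 15 min before automated video-based behavioral testing, at 3 doses; behavioral signature compared with a reference-compound database to give probability per drug class, reported at most efficacious dose. MED = dose (mpk) giving ≥50% total activity; doses typically 0.3–30 mpk.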

[1] = MED = dose having 50% or more total activity in SmartCube

| Compound | minimal effective dose [1] | AD: ADHD (SmartCube probability) | AG: analgesic (SmartCube probability) | AX: anxiolytic (SmartCube probability) | CE: cognitive enhancer (SmartCube probability) | DP: anti-depressant (SmartCube probability) | MS: mood stabilizer (SmartCube probability) | PS: anti-psychotic (SmartCube probability) | SD: sedative hypnotic (SmartCube probability) | UN: uncharacterized CNS activity (SmartCube probability) | minimal effective dose |
| --- | --- | --- | --- | --- | --- | --- | --- | --- | --- | --- | --- |
| Cc1cccc2c1CCO[C@@H]2CN [Example 72, (S)-(5-methylisochroman-1-yl)methanamine] | 3 to 10 mg/kg | + (LOQ≤ + <5%) | + (LOQ≤ + <5%) | ++ (5%≤ ++ <25%) | + (LOQ≤ + <5%) | ++ (5%≤ ++ <25%) | + (LOQ≤ + <5%) | + (LOQ≤ + <5%) | + (LOQ≤ + <5%) | +++ (25%≤ +++ <50%) | – |
| CNC[C@@H]1OCCc2c1cccc2C(F)(F)F [Example 79] | < 3 mg/kg | ++ (5%≤ ++ <25%) | + (LOQ≤ + <5%) | + (LOQ≤ + <5%) | + (LOQ≤ + <5%) | ++++ (50%≤ ++++) | + (LOQ≤ + <5%) | + (LOQ≤ + <5%) | ++ (5%≤ ++ <25%) | + (LOQ≤ + <5%) | – |
| CNC[C@@H]1OC[C@H](O)c2ccc3c(c21)OCO3 (single isomer, unassigned) [Example 114] | 10 to 30 mg/kg | + (LOQ≤ + <5%) | + (LOQ≤ + <5%) | ++ (5%≤ ++ <25%) | + (LOQ≤ + <5%) | + (LOQ≤ + <5%) | + (LOQ≤ + <5%) | ++ (5%≤ ++ <25%) | + (LOQ≤ + <5%) | +++ (25%≤ +++ <50%) | – |
| CNC[C@H]1OCCc2ccc(F)cc21 [Example 13, (S)-1-(7-fluoroisochroman-1-yl)-N-methylmethanamine] | 10 to 30 mg/kg | + (LOQ≤ + <5%) | ++ (5%≤ ++ <25%) | ++ (5%≤ ++ <25%) | + (LOQ≤ + <5%) | ++ (5%≤ ++ <25%) | + (LOQ≤ + <5%) | + (LOQ≤ + <5%) | ++ (5%≤ ++ <25%) | +++ (25%≤ +++ <50%) | – |
| CNC[C@H]1OCCc2c(C)cccc21 [Example 38, (S)-N-methyl-1-(5-methylisochroman-1-yl)methanamine] | < 3 mg/kg | + (LOQ≤ + <5%) | ++ (5%≤ ++ <25%) | ++ (5%≤ ++ <25%) | + (LOQ≤ + <5%) | ++ (5%≤ ++ <25%) | + (LOQ≤ + <5%) | ++ (5%≤ ++ <25%) | ++ (5%≤ ++ <25%) | +++ (25%≤ +++ <50%) | – |
| CNC[C@@H]1OCCc2ccc(F)cc21 [Example 15, (R)-1-(7-fluoroisochroman-1-yl)-N-methylmethanamine] | < 3 mg/kg | + (LOQ≤ + <5%) | ++ (5%≤ ++ <25%) | ++ (5%≤ ++ <25%) | ++ (5%≤ ++ <25%) | ++ (5%≤ ++ <25%) | ++ (5%≤ ++ <25%) | +++ (25%≤ +++ <50%) | ++ (5%≤ ++ <25%) | +++ (25%≤ +++ <50%) | – |
| CNC[C@H]1OCCc2c(F)cccc21 [Example 18, (S)-1-(5-fluoroisochroman-1-yl)-N-methylmethanamine] | 10 to 30 mg/kg | + (LOQ≤ + <5%) | ++ (5%≤ ++ <25%) | ++ (5%≤ ++ <25%) | ++ (5%≤ ++ <25%) | ++ (5%≤ ++ <25%) | + (LOQ≤ + <5%) | + (LOQ≤ + <5%) | + (LOQ≤ + <5%) | ++ (5%≤ ++ <25%) | – |
| CNC[C@H]1OCCc2c1cccc2C(F)(F)F [Example 78, (S)-N-methyl-1-(5-(trifluoromethyl)isochroman-1-yl)-methanamine] | 10 to 30 mg/kg | + (LOQ≤ + <5%) | ++ (5%≤ ++ <25%) | ++ (5%≤ ++ <25%) | + (LOQ≤ + <5%) | ++ (5%≤ ++ <25%) | + (LOQ≤ + <5%) | + (LOQ≤ + <5%) | + (LOQ≤ + <5%) | ++++ (50%≤ ++++) | – |
| CNC[C@H]1OCCc2cc(F)ccc21 [Example 16, (S)-1-(6-fluoroisochroman-1-yl)-N-methylmethanamine] | 10 to 30 mg/kg | + (LOQ≤ + <5%) | ++ (5%≤ ++ <25%) | ++ (5%≤ ++ <25%) | + (LOQ≤ + <5%) | ++ (5%≤ ++ <25%) | + (LOQ≤ + <5%) | +++ (25%≤ +++ <50%) | ++ (5%≤ ++ <25%) | + (LOQ≤ + <5%) | – |
| CNC[C@@H]1OCCc2c(Cl)cccc21 [Example 33, (R)-1-(5-chloroisochroman-1-yl)-N-methylmethanamine] | < 3 mg/kg | + (LOQ≤ + <5%) | ++ (5%≤ ++ <25%) | ++ (5%≤ ++ <25%) | ++ (5%≤ ++ <25%) | ++++ (50%≤ ++++) | + (LOQ≤ + <5%) | + (LOQ≤ + <5%) | ++ (5%≤ ++ <25%) | +++ (25%≤ +++ <50%) | – |
| CNC[C@H]1OCCc2ccc3c(c21)CCO3 [Example 108, (S)-N-methyl-1-(3,4,8,9-tetrahydro-1H-furo[2,3-h]isochromen-1-yl)methanamine] | 3 to 10 mg/kg | + (LOQ≤ + <5%) | + (LOQ≤ + <5%) | + (LOQ≤ + <5%) | + (LOQ≤ + <5%) | ++ (5%≤ ++ <25%) | + (LOQ≤ + <5%) | ++ (5%≤ ++ <25%) | + (LOQ≤ + <5%) | ++++ (50%≤ ++++) | – |
| CNC[C@H]1OCCc2ccc3c(c21)OCO3 [Example 1, (S)-1-(6,9-dihydro-7H-[1,3]dioxolo[4,5-h]isochromen-9-yl)-N-methylmethanamine] | – | + (LOQ≤ + <5%) | + (LOQ≤ + <5%) | ++ (5%≤ ++ <25%) | + (LOQ≤ + <5%) | ++++ (50%≤ ++++) | + (LOQ≤ + <5%) | ++ (5%≤ ++ <25%) | ++ (5%≤ ++ <25%) | + (LOQ≤ + <5%) | < 3 mg/kg |
| CNC[C@@H]1OCCc2c(F)ccc(F)c21 [Example 31, (R)-1-(5,8-difluoroisochroman-1-yl)-N-methylmethanamine] | < 3 mg/kg | + (LOQ≤ + <5%) | ++ (5%≤ ++ <25%) | ++ (5%≤ ++ <25%) | ++ (5%≤ ++ <25%) | ++++ (50%≤ ++++) | + (LOQ≤ + <5%) | + (LOQ≤ + <5%) | + (LOQ≤ + <5%) | + (LOQ≤ + <5%) | – |
| CNC[C@H]1OCCc2cc3c(cc21)OCO3 (stereo in doubt) [Example 5, (S)-1-(7,8-dihydro-5H-[1,3]dioxolo[4,5-g]isochromen-5-yl)-N-methylmethanamine] | > 30 mg/kg | + (LOQ≤ + <5%) | ++ (5%≤ ++ <25%) | ++ (5%≤ ++ <25%) | + (LOQ≤ + <5%) | + (LOQ≤ + <5%) | + (LOQ≤ + <5%) | + (LOQ≤ + <5%) | + (LOQ≤ + <5%) | + (LOQ≤ + <5%) | – |
| CNC[C@@H]1OCCc2cc(Cl)ccc21 [Example 81, (R)-1-(6-chloroisochroman-1-yl)-N-methylmethanamine] | < 3 mg/kg | ++ (5%≤ ++ <25%) | + (LOQ≤ + <5%) | ++ (5%≤ ++ <25%) | + (LOQ≤ + <5%) | ++++ (50%≤ ++++) | + (LOQ≤ + <5%) | + (LOQ≤ + <5%) | + (LOQ≤ + <5%) | ++ (5%≤ ++ <25%) | – |
